Results published in US11208412B2 (DAEGU-GYEONGBUK MEDICAL INNOVATION FOUNDATION, priority 2017, dated 2021).

Assays:
Experiment in all cases: Kinase selectivity, DiscoverX scanMAX Kinase assay panel (% control)
Format in all cases: binding
[1] = target: T1, kinases of the scanMAX Kinase assay panel (Homo sapiens, UniProt Q6ZWH5); settings: NEK10; 1 uM
T1 construct: purchased DiscoverX Co. (contract measurement) scanMAX Kinase assay panel
T1 sequence (Q6ZWH5 1-1172): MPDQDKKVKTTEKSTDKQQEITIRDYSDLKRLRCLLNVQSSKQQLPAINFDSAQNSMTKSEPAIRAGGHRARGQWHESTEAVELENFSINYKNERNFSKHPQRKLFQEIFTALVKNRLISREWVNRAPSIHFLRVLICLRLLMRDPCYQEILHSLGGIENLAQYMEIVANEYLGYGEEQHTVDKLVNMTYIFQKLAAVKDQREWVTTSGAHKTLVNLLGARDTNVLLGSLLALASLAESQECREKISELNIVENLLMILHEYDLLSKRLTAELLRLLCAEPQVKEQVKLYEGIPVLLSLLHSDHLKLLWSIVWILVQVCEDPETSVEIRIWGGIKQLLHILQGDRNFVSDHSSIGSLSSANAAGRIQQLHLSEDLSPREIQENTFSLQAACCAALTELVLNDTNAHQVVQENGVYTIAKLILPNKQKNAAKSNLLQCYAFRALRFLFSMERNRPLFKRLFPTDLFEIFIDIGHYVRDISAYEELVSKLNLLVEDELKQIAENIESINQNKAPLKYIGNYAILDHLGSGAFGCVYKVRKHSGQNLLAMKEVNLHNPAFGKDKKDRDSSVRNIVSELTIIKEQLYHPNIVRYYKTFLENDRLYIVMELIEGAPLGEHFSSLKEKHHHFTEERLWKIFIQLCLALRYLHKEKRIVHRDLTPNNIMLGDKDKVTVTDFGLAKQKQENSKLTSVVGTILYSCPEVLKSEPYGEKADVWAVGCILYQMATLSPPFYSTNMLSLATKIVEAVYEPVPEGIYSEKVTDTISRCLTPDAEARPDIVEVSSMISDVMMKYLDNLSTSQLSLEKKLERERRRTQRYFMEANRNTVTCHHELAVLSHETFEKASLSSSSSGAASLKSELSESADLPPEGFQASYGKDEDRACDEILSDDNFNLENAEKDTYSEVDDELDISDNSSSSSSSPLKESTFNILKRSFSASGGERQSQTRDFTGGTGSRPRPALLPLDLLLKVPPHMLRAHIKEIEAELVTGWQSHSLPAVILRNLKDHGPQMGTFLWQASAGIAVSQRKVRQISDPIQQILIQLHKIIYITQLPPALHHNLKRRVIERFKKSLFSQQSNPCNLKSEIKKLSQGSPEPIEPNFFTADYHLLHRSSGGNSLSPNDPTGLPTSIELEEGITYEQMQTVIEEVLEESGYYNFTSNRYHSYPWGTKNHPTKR
Summary of the method: (§1)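 Binding-panel profiling at one concentration, 1 uM in DMSO; values are % of DMSO control after subtracting the positive-control floor. Less than 35% means activity on that kinase.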

[2] = target: T2, kinases of the scanMAX Kinase assay panel (Homo sapiens, UniProt P00519, T315I); settings: 1 uM
T2 construct: purchased DiscoverX Co. (contract measurement) scanMAX Kinase assay panel
Summary of the method: as §1

[3] = target: T3, kinases of the scanMAX Kinase assay panel (Homo sapiens, UniProt P27448); settings: MARK3; 1 uM
T3 construct: purchased DiscoverX Co. (contract measurement) scanMAX Kinase assay panel
Summary of the method: as §1

[4] = target: T4, kinases of the scanMAX Kinase assay panel (Homo sapiens, UniProt Q5S007, G2019S); settings: LRRK2(G2019S); 1 uM
T4 construct: purchased DiscoverX Co. (contract measurement) scanMAX Kinase assay panel
Summary of the method: as §1

[5] = target: T5, kinases of the scanMAX Kinase assay panel (Homo sapiens, UniProt O95819); settings: MAP4K4; 1 uM
T5 construct: purchased DiscoverX Co. (contract measurement) scanMAX Kinase assay panel
Summary of the method: as §1

[6] = target: T6, kinases of the scanMAX Kinase assay panel (Homo sapiens, UniProt P14616); settings: INSRR; 1 uM
T6 construct: purchased DiscoverX Co. (contract measurement) scanMAX Kinase assay panel
Summary of the method: as §1

[7] = target: T7, kinases of the scanMAX Kinase assay panel (Homo sapiens, UniProt O94768); settings: DRAK2; 1 uM
T7 construct: purchased DiscoverX Co. (contract measurement) scanMAX Kinase assay panel
T7 sequence (O94768 1-372): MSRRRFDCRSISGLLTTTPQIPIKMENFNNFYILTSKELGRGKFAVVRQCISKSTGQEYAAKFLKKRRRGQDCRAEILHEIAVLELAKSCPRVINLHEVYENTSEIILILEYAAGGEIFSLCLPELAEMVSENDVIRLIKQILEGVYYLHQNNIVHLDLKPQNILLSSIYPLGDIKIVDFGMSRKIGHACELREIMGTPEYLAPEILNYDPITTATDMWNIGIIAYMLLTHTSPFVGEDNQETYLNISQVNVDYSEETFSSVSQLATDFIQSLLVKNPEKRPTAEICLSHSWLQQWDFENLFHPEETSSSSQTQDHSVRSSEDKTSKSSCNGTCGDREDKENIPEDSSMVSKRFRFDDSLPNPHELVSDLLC
Summary of the method: as §1

T4 sequence (Q5S007 whole entry G2019S): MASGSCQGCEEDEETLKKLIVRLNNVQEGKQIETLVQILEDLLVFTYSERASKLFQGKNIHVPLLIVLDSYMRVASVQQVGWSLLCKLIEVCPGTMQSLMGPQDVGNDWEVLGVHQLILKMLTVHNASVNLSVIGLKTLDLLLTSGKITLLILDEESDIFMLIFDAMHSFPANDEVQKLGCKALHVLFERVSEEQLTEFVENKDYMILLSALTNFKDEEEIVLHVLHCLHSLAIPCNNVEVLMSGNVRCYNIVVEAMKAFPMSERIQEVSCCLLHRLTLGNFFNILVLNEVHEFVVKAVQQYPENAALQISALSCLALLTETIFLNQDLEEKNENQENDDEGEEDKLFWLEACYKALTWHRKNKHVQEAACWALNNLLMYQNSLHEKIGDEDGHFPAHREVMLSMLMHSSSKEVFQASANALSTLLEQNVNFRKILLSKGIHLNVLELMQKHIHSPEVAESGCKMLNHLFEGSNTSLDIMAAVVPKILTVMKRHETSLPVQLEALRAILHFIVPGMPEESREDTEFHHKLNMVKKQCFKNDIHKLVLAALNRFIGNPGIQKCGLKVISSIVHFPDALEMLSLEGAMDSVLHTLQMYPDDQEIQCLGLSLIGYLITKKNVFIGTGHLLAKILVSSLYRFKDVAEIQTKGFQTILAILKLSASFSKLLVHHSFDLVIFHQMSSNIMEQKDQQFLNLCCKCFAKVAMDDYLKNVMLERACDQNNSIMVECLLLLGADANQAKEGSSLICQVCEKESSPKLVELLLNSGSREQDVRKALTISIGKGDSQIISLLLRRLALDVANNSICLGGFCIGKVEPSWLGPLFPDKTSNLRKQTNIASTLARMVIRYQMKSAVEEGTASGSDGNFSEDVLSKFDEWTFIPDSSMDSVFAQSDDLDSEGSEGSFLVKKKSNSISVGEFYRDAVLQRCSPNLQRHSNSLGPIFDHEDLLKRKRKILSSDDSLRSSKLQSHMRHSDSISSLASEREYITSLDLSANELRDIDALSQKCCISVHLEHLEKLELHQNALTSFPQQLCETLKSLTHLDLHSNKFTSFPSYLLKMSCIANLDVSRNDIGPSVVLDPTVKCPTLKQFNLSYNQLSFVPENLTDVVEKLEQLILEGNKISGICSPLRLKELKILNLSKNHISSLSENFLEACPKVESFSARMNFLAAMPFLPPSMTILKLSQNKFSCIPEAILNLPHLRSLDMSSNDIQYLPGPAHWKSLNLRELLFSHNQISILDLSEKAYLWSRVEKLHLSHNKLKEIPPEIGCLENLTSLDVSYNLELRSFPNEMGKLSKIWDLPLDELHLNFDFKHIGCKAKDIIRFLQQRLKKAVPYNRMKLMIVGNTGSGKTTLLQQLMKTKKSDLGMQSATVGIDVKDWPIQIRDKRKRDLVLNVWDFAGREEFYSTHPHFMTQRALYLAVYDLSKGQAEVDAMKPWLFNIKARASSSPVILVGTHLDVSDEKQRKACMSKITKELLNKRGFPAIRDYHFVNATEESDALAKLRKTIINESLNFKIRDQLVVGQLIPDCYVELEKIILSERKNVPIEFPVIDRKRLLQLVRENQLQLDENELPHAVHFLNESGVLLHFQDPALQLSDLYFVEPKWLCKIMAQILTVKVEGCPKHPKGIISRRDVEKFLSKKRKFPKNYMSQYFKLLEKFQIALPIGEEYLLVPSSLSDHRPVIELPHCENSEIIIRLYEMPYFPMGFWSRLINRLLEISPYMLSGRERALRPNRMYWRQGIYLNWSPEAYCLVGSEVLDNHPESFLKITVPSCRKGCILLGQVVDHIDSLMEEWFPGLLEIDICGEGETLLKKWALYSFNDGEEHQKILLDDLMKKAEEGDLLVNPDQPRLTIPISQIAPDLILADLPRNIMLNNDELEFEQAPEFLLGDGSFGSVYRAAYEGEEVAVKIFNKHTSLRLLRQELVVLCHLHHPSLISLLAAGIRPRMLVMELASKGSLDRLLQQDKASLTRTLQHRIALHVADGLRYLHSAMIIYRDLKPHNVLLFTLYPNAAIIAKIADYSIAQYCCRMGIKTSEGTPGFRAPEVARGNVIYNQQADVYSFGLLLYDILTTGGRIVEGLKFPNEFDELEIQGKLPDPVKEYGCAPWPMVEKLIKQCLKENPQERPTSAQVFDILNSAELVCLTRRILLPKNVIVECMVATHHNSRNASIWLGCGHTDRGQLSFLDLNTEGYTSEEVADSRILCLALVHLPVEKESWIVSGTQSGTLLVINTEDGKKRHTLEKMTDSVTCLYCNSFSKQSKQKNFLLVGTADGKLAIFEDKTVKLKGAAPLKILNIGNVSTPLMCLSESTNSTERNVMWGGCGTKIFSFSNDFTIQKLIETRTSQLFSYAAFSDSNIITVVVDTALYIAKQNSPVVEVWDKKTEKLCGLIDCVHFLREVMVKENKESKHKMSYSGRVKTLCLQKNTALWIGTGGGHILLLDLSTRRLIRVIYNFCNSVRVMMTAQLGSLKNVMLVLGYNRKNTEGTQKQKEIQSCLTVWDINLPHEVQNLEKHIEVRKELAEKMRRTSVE
T6 sequence (P14616 27-1297): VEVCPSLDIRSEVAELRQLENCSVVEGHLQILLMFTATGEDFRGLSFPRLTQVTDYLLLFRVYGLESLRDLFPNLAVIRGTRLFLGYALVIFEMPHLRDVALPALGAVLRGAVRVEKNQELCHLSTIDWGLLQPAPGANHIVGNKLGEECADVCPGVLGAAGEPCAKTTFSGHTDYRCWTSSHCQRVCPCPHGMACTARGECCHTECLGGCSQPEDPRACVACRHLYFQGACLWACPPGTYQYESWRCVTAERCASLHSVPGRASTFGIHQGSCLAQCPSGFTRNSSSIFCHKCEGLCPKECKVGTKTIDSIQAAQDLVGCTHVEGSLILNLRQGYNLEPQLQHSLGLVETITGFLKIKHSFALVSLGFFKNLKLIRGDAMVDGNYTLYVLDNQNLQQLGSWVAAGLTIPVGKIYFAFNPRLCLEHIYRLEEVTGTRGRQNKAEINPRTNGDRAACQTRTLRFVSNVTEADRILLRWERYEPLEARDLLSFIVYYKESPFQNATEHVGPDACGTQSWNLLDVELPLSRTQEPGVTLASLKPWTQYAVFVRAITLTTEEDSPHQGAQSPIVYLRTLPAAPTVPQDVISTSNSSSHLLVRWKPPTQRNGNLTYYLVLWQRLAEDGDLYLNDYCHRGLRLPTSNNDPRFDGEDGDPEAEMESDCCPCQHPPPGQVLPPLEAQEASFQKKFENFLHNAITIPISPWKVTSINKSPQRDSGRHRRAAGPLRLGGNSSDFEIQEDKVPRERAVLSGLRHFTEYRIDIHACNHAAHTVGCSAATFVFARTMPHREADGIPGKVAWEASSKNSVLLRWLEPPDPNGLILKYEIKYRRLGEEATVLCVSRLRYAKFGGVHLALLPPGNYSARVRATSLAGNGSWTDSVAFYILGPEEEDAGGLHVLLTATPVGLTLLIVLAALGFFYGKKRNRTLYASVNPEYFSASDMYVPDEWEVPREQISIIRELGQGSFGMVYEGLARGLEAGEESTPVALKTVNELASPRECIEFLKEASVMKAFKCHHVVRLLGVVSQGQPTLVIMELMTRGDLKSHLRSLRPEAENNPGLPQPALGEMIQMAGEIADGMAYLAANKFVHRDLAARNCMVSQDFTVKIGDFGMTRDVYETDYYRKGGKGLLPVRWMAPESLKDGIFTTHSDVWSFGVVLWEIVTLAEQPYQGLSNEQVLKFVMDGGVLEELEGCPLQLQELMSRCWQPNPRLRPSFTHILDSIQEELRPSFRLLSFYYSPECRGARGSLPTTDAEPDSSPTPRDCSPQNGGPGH
T5 sequence (O95819 whole entry): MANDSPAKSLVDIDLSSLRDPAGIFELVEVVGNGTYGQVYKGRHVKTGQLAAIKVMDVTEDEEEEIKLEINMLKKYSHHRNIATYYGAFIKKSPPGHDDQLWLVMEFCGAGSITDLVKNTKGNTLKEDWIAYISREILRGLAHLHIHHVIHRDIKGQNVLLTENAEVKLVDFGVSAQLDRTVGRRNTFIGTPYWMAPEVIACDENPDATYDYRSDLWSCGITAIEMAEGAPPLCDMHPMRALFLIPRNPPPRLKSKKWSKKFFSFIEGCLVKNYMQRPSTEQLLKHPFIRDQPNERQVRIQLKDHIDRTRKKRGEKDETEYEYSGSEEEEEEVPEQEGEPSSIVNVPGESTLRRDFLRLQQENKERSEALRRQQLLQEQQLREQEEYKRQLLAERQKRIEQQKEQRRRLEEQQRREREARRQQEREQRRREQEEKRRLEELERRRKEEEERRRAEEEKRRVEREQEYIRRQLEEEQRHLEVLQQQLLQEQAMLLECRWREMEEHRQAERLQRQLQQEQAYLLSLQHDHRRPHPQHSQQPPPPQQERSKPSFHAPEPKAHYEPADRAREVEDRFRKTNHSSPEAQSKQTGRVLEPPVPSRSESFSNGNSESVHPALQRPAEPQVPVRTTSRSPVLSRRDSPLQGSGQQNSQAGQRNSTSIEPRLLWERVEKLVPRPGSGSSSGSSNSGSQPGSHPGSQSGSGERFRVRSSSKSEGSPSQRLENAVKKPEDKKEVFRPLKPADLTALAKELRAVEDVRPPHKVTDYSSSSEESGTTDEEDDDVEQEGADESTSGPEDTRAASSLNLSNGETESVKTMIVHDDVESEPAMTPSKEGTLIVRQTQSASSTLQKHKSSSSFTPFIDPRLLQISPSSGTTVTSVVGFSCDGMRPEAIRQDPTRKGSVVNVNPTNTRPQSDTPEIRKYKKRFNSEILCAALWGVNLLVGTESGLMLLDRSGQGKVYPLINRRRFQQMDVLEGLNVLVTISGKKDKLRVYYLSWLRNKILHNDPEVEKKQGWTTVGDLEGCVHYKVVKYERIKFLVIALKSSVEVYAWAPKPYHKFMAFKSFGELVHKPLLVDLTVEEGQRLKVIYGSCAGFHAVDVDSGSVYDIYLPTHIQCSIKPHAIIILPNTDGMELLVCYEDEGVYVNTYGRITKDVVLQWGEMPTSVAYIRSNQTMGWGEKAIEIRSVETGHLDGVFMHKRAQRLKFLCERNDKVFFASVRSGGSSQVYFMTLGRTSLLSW

| SMILES | remaining binding at 1 µM [1] [%] | remaining binding at 1 µM ([2]; ABL1(T315I)-nonphosphorylated) [%] | remaining binding at 1 µM ([2]; ABL1(T315I)-phosphorylated) [%] | remaining binding at 1 µM [3] [%] | remaining binding at 1 µM [4] [%] | remaining binding at 1 µM [5] [%] | remaining binding at 1 µM [6] [%] | remaining binding at 1 µM [7] [%] |
| --- | --- | --- | --- | --- | --- | --- | --- | --- |
| CCNc1nc(Nc2ccc(C(=O)N3CCC(N4CCOCC4)CC3)cc2OC)nc2[nH]cc(C(F)(F)F)c12 [Example 104, (4-((4-(ethylamino)-5-(trifluoromethyl)-7H-pyrrolo[2,3-d]pyrimidine-2-yl)amino)-3-methoxyphenyl)(4-morpholinopiperidine-1-yl)methanone] | 100 | 100 | 98 | 86 | 2 | 100 | 3.2 | 15 |
| CNc1nc(Nc2ccc(C(=O)N3CCOCC3)cc2OC)nc2[nH]cc(C#N)c12 [Example 1, 2-((2-methoxy-4-(morpholine-4-carbonyl)phenyl)amino)-4-(methylamino)-7H-pyrrolo[2,3-d]pyrimidine-5-carbonitrile] | 53 | 83 | 59 | 100 | 0 | 82 | 61 | 13 |
| CC1(Nc2nc(Nc3cnn([C@H]4CCN(C5COC5)C[C@@H]4F)c3Cl)nc3[nH]cc(C#N)c23)CC1 [Example 52, 2-((5-chloro-1-((3S,4S)-3-fluoro-1-(oxetane-3-yl)piperidine-4-yl)-1H-pyrazole-4-yl)amino)((1-methylcyclopropyl)amino)-7H-pyrrolo[2,3-d]pyrimidine-5-carbonitrile] | 0.95 | 0 | 0.05 | 29 | 2.6 | 18 | 6.5 | 1.2 |
